The structures appear in SMILES notation.

The values below come from patent publication US11376247B2, “Tyrosine kinase inhibitors regenerate non-cancerous tissue after cancer therapy” (THE REGENTS OF THE UNIVERSITY OF COLORADO, A BODY CORPORATE, priority 2017, dated 2022).

The test system of one experiment is salivary gland function. The experiment can be described thus: Saliva production in mice after single dose head and neck IR. It counts as in vivo. On the procedure: The star indicates time of IR treatment. Three TKI dosing regimens were used, where times of delivery is indicated by the filled circles. Mice were treated with the specific TKI 1 hour prior to delivery of IR (pre), 1 hour prior and 3 hours post IR (pre/post), or 3 and 6 hours post (post/post). Saliva production was assayed prior to IR (day 0) and at 60 days after IR as described in Examples. […] Saliva was collected […]. as described in Examples. Salivary production (saliva weight/animal weight) for each cohort of mice was normalized against the saliva production for vehicle treated mice to generate the data shown.
(§1) The star indicates time of IR treatment; while TKI delivery is indicated by the filled circles and arrows indicate time of saliva collection. Mice were dosed 1 hour prior and 3 hours post IR (pre/post), or pre/post plus twice a week for the duration of the experiment. Saliva production was assayed prior to IR (day 0) and at 30, 60, 90, 120 and 150 days after IR. Mice received vehicle alone, 15 Gy IR plus vehicle, or IR plus dasatinib as indicated. Saliva production (saliva weight/animal weight) for each cohort of mice was normalized against the production for vehicle-treated mice to generate the data shown in FIG. 3B. […] Salivary glands from mice in each group (n=2) were removed, formalin fixed and paraffin embedded. Immunohistochemistry for AQPN5 and H&E staining was performed on salivary glands from each mouse. […] Images were captured using an Olympus BX51 scope and Olympus DP72 camera with a 20× objective. Solid arrows indicate acinar cells while dashed arrows mark salivary gland ducts.
The schematic in FIG. 2A depicts the 3 dosing regimens used for the experiments in FIG. 2.
(§2) C57Bl/6 and athymic nude female mice were purchased from Jackson Laboratories (Bar Harbor, Me., USA). For single dose IR, mice were anesthetized by intraperitoneal (i.p.) injection of […] Avertin (Sigma), immobilized within a 50-mL conical tube, and a single dose of IR (10 or 15 Gy) was delivered to the head and neck using a Caesium-137 source. For fractionated IR, mice received 5 fractions of 6 Gy (tumor study) or 4 Gy (saliva production) on 5 consecutive days.
Saliva was collected immediately following i.p. injection of 0.1 mg/kg carbachol (Sigma) in saline (0.9% NaCl). Whole saliva was collected for 3 mins from the lower cheek pouch using a suction device and expressed as mg (saliva)/g (mouse weight).

The test system of another experiment is SMG acinar cells. Nature of the experiment: Salivary gland histology (H&E, AQPN5 immunohistochemistry) 150 days after IR. It is filed as in vivo, mice. The following applies: 15 Gy IR, continuous dasatinib. Here is the method: as §1, with “indicated.” for “indicated. Saliva production (saliva weight/animal weight) for each cohort of mice was normalized against the production for vehicle-treated mice to generate the data shown in FIG. 3B.”, “Solid arrows indicate acinar cells while dashed arrows mark salivary gland ducts.” left out
For tissue analysis, salivary glands were formalin fixed, paraffin embedded, and sectioned at […]. Tissue sections were stained with haematoxylin-eosin (H&E) and aquaporin 5 (AQPN5) was detected by immunohistochemistry (Abcam). Stained slides were archived and analyzed using the Aperio Digital Pathology System and ImageScope software (Leica Biosystems). For AQPN5, the number of positive stained pixels was quantified using the Positive Pixel algorithm in three representative sections, cut 50 micrometers apart, of both full submandibular salivary glands from two mice per treatment group, for a total of […] per group. […]

For a further experiment, the system named is ParC5 cells. Nature of the experiment: IR-induced apoptosis, caspase-3/7 activity in salivary gland acinar cells. It is filed as cell-based, rat. As to conditions: TKI pretreatment 30 min, 10 Gy IR, 18 hours after IR. Here is the method:
Whole cell lysates were resolved with SDS-PAGE and analyzed using phospho-specific antibodies that recognize PKC-delta pY64, pY155 or pT505. Membranes were stripped and probed for total PKC-delta and actin to determine loading. Each experiment was done a minimum of three times; representative immunoblots are shown. […] Caspase-3/7 activity was assayed as described in the Examples. Data shown is the average of triplicate samples from a representative experiment plus and minus the S.D. (error bars). The experiment was repeated three times, *=p<0.05 for caspase activity compared to cells expressing shScr. An immunoblot showing depletion of PKC-delta is shown below. […] The data are the average of triplicate measurements from a representative experiment plus the S.D. (error bars). Each experiment was repeated three times. *=p<0.05 for caspase activity compared to cells treated with IR alone. […] Inhibition of c-Src and c-Abl was determined by probing for their respective activation sites pY416 (c-Src) and pY412 (c-Abl). […]
Phosphorylation of PKC-delta at T505 is seen within 1 hour after IR, while phosphorylation at Y64 and Y155 are detectable by 2 hours post IR and continue to increase until at least 6 hours (FIG. 1A). […] Active caspase-3/7 was detected using the Caspase-3/7 Cellular Activity Assay Kit PLUS (Biomol, Farmingdale, N.Y.) according to the manufacturer's instructions.

Experiment [1] deals with PKC-delta, c-Src, c-Abl in ParC5 cells. Nature of the experiment: Immunoblot for PKC-delta pY64/pY155, c-Src pY416 and c-Abl pY412 after H2O2. It counts as cell-based, rat. As to conditions: TKI 30 min, then 5 mM H2O2 30 min. (In general: Immunoblotting shows a protein as a band on a membrane.)
For a further experiment, the system named is PKC-delta. As to conditions: in response to DNA damaging agents; previously shown; cited from earlier work.
Experiment [2] relates to FaDu derived xenograft tumors. Nature of the experiment: FaDu flank xenograft tumor growth with fractionated IR. It counts as in vivo, nude mice. Here is the method:
as §2

For the molecule `Cc1nc(Nc2ncc(C(=O)Nc3c(C)cccc3Cl)s2)cc(N2CCN(CCO)CC2)n1` [dasatinib], the “saliva production, % of vehicle treated controls” value in the experiment on salivary gland function (15 Gy IR, dasatinib 20 mg/kg pre/post, 60 days post IR (FIG. 2B)) is 65%; in the experiment with salivary gland function (15 Gy IR, dasatinib pre/post plus twice a week (continual), 90 days), 74%; in the experiment with salivary gland function (15 Gy IR, dasatinib pre/post plus twice a week (continual), 120 days) it was 69%; with salivary gland function (15 Gy IR, dasatinib pre/post plus twice a week (continual), 150 days) it was 82%. Further, the “saliva production, % of vehicle treated mice” value with salivary gland function (15 Gy IR, dasatinib pre/post only, 30 and 60 days (FIG. 3B)) is on record as 70%. Also, the “protection of salivary gland function compared to vehicle only treated mice” value in the experiment with salivary gland function (IR plus dasatinib, all 3 protocols (pre, pre/post, post/post), 60 days (FIG. 2D)) is given as roughly 100%. Also, the “AQPN5 staining in the SMGs, % of vehicle treated mice” value in the experiment on SMG acinar cells came to 93%.

As to `Cc1ccc(NC(=O)c2ccc(CN3CCN(C)CC3)cc2)cc1Nc1nccc(-c2cccnc2)n1` [imatinib], the “IR-induced apoptosis (caspase-3/7 activity)” value with ParC5 cells was “inhibits IR-induced apoptosis”. In addition, in the experiment with salivary gland function (IR plus imatinib, one dose prior to IR (pre), 60 days (FIG. 2E)), the “saliva production, % of vehicle control” value worked out at 63%. Also, in experiment [1], the “inhibition of Y155 versus Y64 phosphorylation of PKC-delta” value is “slightly more potent inhibitors of Y155 phosphorylation than Y64 phosphorylation” and the “inhibition of c-Abl versus c-Src” value was “more potent inhibition of c-Abl than c-Src”. In addition, in the experiment with PKC-delta, the “phosphorylation of PKC-delta at Y64 and Y155, nuclear translocation of PKC-delta, and apoptosis” value is given as “block”. Moreover, the “tumor growth, TKI added to fractionated IR” value in experiment [2] (5 x 6 Gy IR, dasatinib 20 mg/kg or imatinib 50 mg/kg pre/post each fraction) is given as “no effect on tumor growth”. The “tumor growth, TKI alone compared to respective controls” value in experiment [2] (dasatinib 20 mg/kg or imatinib 50 mg/kg alone, no IR) was “trend towards reduced tumor growth”.
